According to US20240270713A1, “NOVEL COMPOUND EXHIBITING THERAPEUTIC EFFECT ON INFLAMMATORY DISEASE AS P38 MAP KINASE INHIBITOR” (PRAZERTHERAPEUTICS INC., priority 2021, published 2024):

Test system: IL-1β mRNA
Test: Cytokine mRNA expression inhibitory ability, IL-1β, LPS-treated Raw264.7 cells
Format: cell-based
Conditions: 1 μM compound 24 hours, then 100 ng/ml LPS 24 hours
Method: Evaluation of cytokine mRNA expression inhibitory ability according to inflammatory response
In order to identify inhibition of p-p38 MAPK, inhibition of p38 MAPK was identified after treating each compound to Raw264.7 cells obtained by converting macrophages that induces inflammation according to p-p38 MAPK activity cancerous cells. Briefly, Raw264.7 cells were cultured in Dulbecco's modified Eagle Medium supplemented with 10% fetal bovine serum and penicillin/streptomycin (100 U/ml). Raw264.7 cells were treated with 1 μM of Compounds 1 to 5 according to the present disclosure in a culture dish respectively and cultured for 24 hours in a CO2 incubator, and then treated with 100 ng/ml of LPS, followed by additional culture for 24 hours in a CO2 incubator.
After cell culture was terminated according to the experimental conditions, cells were washed with cold phosphate buffered saline (PBS). The cells were then collected and centrifuged at 1200 rpm for 3 minutes. RNA was extracted according to the method provided in the Hybrid-R total RNA purification kit (GeneAll, 305-101). After measuring the concentration and purity of RNA using Nanodrop, cDNA was synthesized according to the method provided in TOPscript RT DryMIX (Enzynomics, RT200). After a reaction at 95° C. for 3 minutes using SYBR Green Mix along with primer, cDNA was subjected to repetitive reactions 30 times at 95° C. for 10 seconds, at 55° C. for 10 seconds, and at 72° C. for 30 seconds to determine the RNA expression level. The results are shown in Tables 5 and 6 below and FIGS. 1 and 2.

Cc1c(F)cc(C(=O)NC2CC2)cc1-c1ccc(C(=O)c2c[nH]c3ccccc23)cn1 [Compound 4, 3-(5-(1H-indole-3-carbonyl)pyridin-2-yl)-N-cyclopropyl-5-fluoro-4-methylbenzamide]
IL-1β mRNA inhibition: 38.2%
